Measurements from ChEMBL document CHEMBL1201862, “PubChem BioAssay data set” (2004).
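Compound exposure: 48 hours, 5 concentrations, 96-well plates. At the GI50, growth is halved.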 Activity calls are given as the source filed them. Cut-off read from the data, not from the text of the source: active = GI50 up to about 1.1 µM and inactive = higher.

Key:
Test in all cases: NCI anticancer screen, dose series, 48 h
TK-10 = system: TK-10
HCC 2998 = system: HCC 2998
COLO 205 = system: COLO 205
HT-29 = system: HT-29
CCRF-CEM = system: CCRF-CEM
SN12C = system: SN12C
SW-620 = system: SW-620
NCI/ADR-RES = system: NCI/ADR-RES
DU-145 = system: DU-145
T47D = system: T47D
HL-60 = system: HL-60
IGROV-1 = system: IGROV-1
NCI-H522 = system: NCI-H522
EKVX = system: EKVX
HCT-116 = system: HCT-116
MDA-MB-231 = system: MDA-MB-231
SF-539 = system: SF-539
OVCAR-3 = system: OVCAR-3
KM12 = system: KM12
U-251 = system: U-251

Measured: GI50

COCCCNc1c2ccccc2nc2ccccc12
inactive: TK-10 5.62 µM | HCC 2998 1.56 µM | COLO 205 2.11 µM | HT-29 2.82 µM | CCRF-CEM 5.26 µM | SN12C 3.24 µM | SW-620 2.44 µM | NCI/ADR-RES 3.82 µM | DU-145 2.52 µM | T47D 2.64 µM | HL-60 3.87 µM | IGROV-1 3.56 µM | NCI-H522 1.64 µM | EKVX 3.59 µM | HCT-116 2.59 µM | MDA-MB-231 3.25 µM | SF-539 2.26 µM | OVCAR-3 2.47 µM | KM12 4.39 µM

O=C(Nc1ccc(Cl)c(Cl)c1)OCCN1c2ccccc2Sc2ccccc21
inactive: U-251 > 10 µM | TK-10 > 10 µM | HCC 2998 > 10 µM | COLO 205 > 10 µM | HT-29 > 10 µM | CCRF-CEM > 10 µM | SN12C > 10 µM | SW-620 > 10 µM | NCI/ADR-RES > 10 µM | DU-145 > 10 µM | T47D > 10 µM | HL-60 > 10 µM | IGROV-1 > 10 µM | NCI-H522 > 10 µM | HCT-116 > 10 µM | MDA-MB-231 > 10 µM | SF-539 > 10 µM | OVCAR-3 > 10 µM | KM12 > 10 µM

O=C1C/C(=C\c2ccccc2)C(=O)c2ccccc2N1
inactive: TK-10 32.9 µM | HCC 2998 19 µM | COLO 205 20 µM | HT-29 18.4 µM | CCRF-CEM 16.7 µM | SN12C 18.5 µM | SW-620 19.5 µM | NCI/ADR-RES 23.6 µM | DU-145 32.5 µM | T47D 28.2 µM | HL-60 20.8 µM | IGROV-1 18.6 µM | NCI-H522 22.9 µM | EKVX 24.1 µM | HCT-116 14.7 µM | MDA-MB-231 23.8 µM | SF-539 20.2 µM | OVCAR-3 25 µM | KM12 22.6 µM

CC(Br)CN1CCOCC1 (centres undefined)
inactive: U-251 > 100 µM | TK-10 > 100 µM | HCC 2998 > 100 µM | COLO 205 > 100 µM | HT-29 > 100 µM | SN12C > 100 µM | SW-620 > 100 µM | NCI/ADR-RES > 100 µM | DU-145 > 100 µM | T47D > 100 µM | HL-60 10.5 µM | IGROV-1 > 100 µM | NCI-H522 > 100 µM | EKVX > 100 µM | HCT-116 > 100 µM | MDA-MB-231 > 100 µM | SF-539 > 100 µM | OVCAR-3 > 100 µM | KM12 > 100 µM

Cc1cc(S(=O)(=O)NC2=Nc3ccccc3C(c3ccccc3)N2)c(S)cc1Cl (centres undefined)
inactive: U-251 37.7 µM | TK-10 > 100 µM | HCC 2998 > 100 µM | COLO 205 > 100 µM | HT-29 > 100 µM | CCRF-CEM 32.6 µM | SN12C 50.7 µM | SW-620 > 100 µM | NCI/ADR-RES > 100 µM | DU-145 > 100 µM | T47D 6.56 µM | HL-60 > 100 µM | IGROV-1 > 100 µM | NCI-H522 > 100 µM | EKVX > 100 µM | HCT-116 7.13 µM | MDA-MB-231 95.3 µM | SF-539 > 100 µM | OVCAR-3 > 100 µM | KM12 58.6 µM

COC(=O)C1[C@H](C(=O)OC)C1(Br)CBr (some centres undefined)
inactive: U-251 > 100 µM | TK-10 > 100 µM | HCC 2998 > 100 µM | COLO 205 > 100 µM | HT-29 > 100 µM | SN12C > 100 µM | SW-620 > 100 µM | NCI/ADR-RES > 100 µM | DU-145 > 100 µM | T47D > 100 µM | HL-60 > 100 µM | IGROV-1 > 100 µM | NCI-H522 8.95 µM | EKVX > 100 µM | HCT-116 > 100 µM | MDA-MB-231 > 100 µM | SF-539 > 100 µM | OVCAR-3 > 100 µM | KM12 > 100 µM

Nc1ncnc2c1nc(-c1ccccc1)n2C1OC(CO)C(O)C1O (centres undefined)
inactive: U-251 > 100 µM | TK-10 > 100 µM | HCC 2998 > 100 µM | COLO 205 > 100 µM | HT-29 > 100 µM | SN12C > 100 µM | SW-620 > 100 µM | NCI/ADR-RES > 100 µM | DU-145 > 100 µM | T47D > 100 µM | HL-60 > 100 µM | IGROV-1 > 100 µM | NCI-H522 > 100 µM | EKVX > 100 µM | HCT-116 > 100 µM | MDA-MB-231 > 100 µM | SF-539 > 100 µM | OVCAR-3 > 100 µM | KM12 86.7 µM
